# Source: patent publication US20070015688A1, “Method for screening for inhibitors of alzheimer's disease” (priority 2000, published 2007)
# Tested on: low-density lipoprotein (LDL)
# Experiment: LDL oxidation (lipid peroxidation) assay of Cu-metallated APP proteins
# Type: biochemical
# Conditions: for % of lipid peroxidation by control: Cu-metallated proteins, 0.5 mg/mL LDL, 24 hr, 37° C., control LDL in PBS alone = 100; for effect on lipid peroxidation (Cu-reducing) activity of the CuBD, in words: mutations incorporated into APP133-189
# Procedure: Mutagenesis experiments were performed to test this. His147 and His151 were mutated to Asn, Tyr168 was mutated to Phe, and Met170 was mutated to Leu. These mutations were incorporated into APP133-189. Recombinant protein was expressed in Pichia pastoris as described above, and purified by standard chromatography methods. The identities of the purified proteins were verified by mass spectrometry. The Cu-reducing activity of the CuBD was tested in a lipid peroxidation assay.
# Two different assays of metal mediated lipid peroxidation were utilized. The first assay involved measuring the oxidative activity of metallated proteins. This was determined by mixing dialyzed metallated or native protein at designated concentrations with 0.5 mg/mL low-density lipoprotein (LDL) for 24 hr (37° C.). Lipid peroxidation was measured using a lipid peroxidation assay kit (LPO 486, Oxis International Inc. Portland, Oreg.), as per kit instructions.
# The control is LDL (0.5 mg/mL) in PBS buffer alone. […] APP133-189 induced strong lipid peroxidation (3-fold above background).
Substance,% of lipid peroxidation by control [%],lipid peroxidation above background (background = APP28-123 negative control) [fold],"effect on lipid peroxidation (Cu-reducing) activity of the CuBD, in words"
"APP133-189: truncated version of the CuBD of APP, recombinant protein expressed in Pichia pastoris (CKFLHQERMDVCETHLHWHTVAKETCSEKSTNLHDYGMLLPCGIDKFRGVEFVCCPL; UniProt P05067 133-189, looked up, fragment)",312,3,–
His147Asn: APP133-189 with His147 mutated to Asn,87,–,abolished this activity
His151Asn: APP133-189 with His151 mutated to Asn,196,–,"affected the activity, but to a lesser extent"
Met170Leu: APP133-189 with Met170 mutated to Leu,142,–,significant effect on the activity
Tyr168Phe: APP133-189 with Tyr168 mutated to Phe,111,–,significant effect on the activity
